Key:
[1] = target: T1, NPM-ALK fusion protein (Homo sapiens, UniProt Q9UM73); assay: Western blot analysis of NPM-ALK fusion protein in SU-DHL-1 cells; format: cell-based; conditions: for effect in degrading NPM-ALK fusion protein after pretreatment with folic acid: free folic acid pretreatment; for DC50: read-out: DC50 of NPM-ALK fusion protein degradation
T1 construct: endogenous in cells; host or cells: SU-DHL-1; the other entry of the earlier key: NPM1 (P06748, Nucleophosmin)
Method: (§1) For folic acid competitive degradation assay, cells were pretreated with folic acid (F8758, Sigma-Aldrich, 2.5 mM) for 2 hours, followed by the treatment of indicated PROTACs for indicated time. For endocytosis inhibition, cells were pretreated with Pitostop 2 (SML1169, Sigma-Aldrich, 1-30 μM) or MCD (21633, Cayman, 0.03-1 mM) for 12 hours, followed by co-treatment with indicated PROTACs for another 12 hours. For proteasome or E3 ligase inhibition assay, cells were treated with MG132 (BML-P11020, ENZO Life Sciences, 10 μM) or MLN4924 (S7109, SelleckChem, 1 μM) another 12 hours. For GSH-stimulating assay, cells were treated with S-Acetyl-GSH (29624, Cayman, 1 mM) with indicated PROTACs for 12 or 72 hours.
(§2) Cells were lysed in EBC buffer (50 mM Tris pH 7.5, 120 mM NaCl, 0.5% NP-40) supplemented with protease inhibitors (Pierce) and phosphatase inhibitors (phosphatase inhibitor cocktail set I and II, Calbiochem). The protein concentrations of the lysates were measured using the Bio-Rad protein assay reagent on a Beckman Coulter DU-800 spectrophotometer. The lysates were then resolved by SDS-PAGE and immunoblotted with indicated antibodies.
(§3) Cells were lysed in EBC buffer (50 mM Tris-HCl pH 7.5, 120 mM NaCl and 0.5% NP-40) supplemented with protease inhibitors (Pierce) and phosphatase inhibitors (phosphatase inhibitor cocktailset I and II, Calbiochem). The protein concentrations of the lysates were measured using the Bio-Rad protein assay reagent on a Beckman Coulter DU-800 spectrophotometer. The lysates (40 μg protein) werethen resolved by 10% SDS-olyacrylamide gel electrophoresis (PAGE) at 130 V for 80 min and immunoblotted with indicated antibodies at 4° C. overnight, washed four times with Tris-buffered saline with 0.1% Tween-20 (TBST) buffer, incubated with secondary antibody for 1 hour at room temperature, and then washed 4 times with TBST.

[2] = Release of active compound after incubation with DTT in PBS at 37° C., HPLC analysis; format: physicochemical; conditions: 37° C. in PBS; for release of MS4048 after DTT treatment: DTT (10 equiv), HPLC
Method: FA-S2-POMA and the negative control FA-C2-POMA were incubated with dithiothreitol (DTT) under physiological conditions (37° C. in phosphate buffered saline (PBS)) and then subjected to HPLC analysis.
The effects of these folate caged PROTACS on ALK fusion protein degradation was assessed in cancer cells. FA-S2-MS4048 and FA-C2-MS4048 were incubated with DTT at 37° C. in PBS. […] Furthermore, compared to FA-S2-POMA (FIG. 11B), the release rate of FA-S2-MS4048 is slower.

[3] = test system: SU-DHL-1 cells; assay: Cell viability of SU-DHL-1 cells (CCK-8); format: cell-based; conditions: 72 hours; for IC50: Homo sapiens, read-out: IC50 cell viability / proliferation
Method: as §1
Cell in 96-well plates were treated with drugs as indicated, and then incubated with 10 μl/well of CCK-8 (cell counting Kit-8) solution at for 1-2 hours, followed by the measurement of optical density at 450 nm.

[4] = target: T2, EML4-ALK fusion protein (Homo sapiens, UniProt Q9UM73); assay: Western blot analysis of EML4-ALK fusion protein in NCI-H2228 and NCI-H3122 NSCLC cells; format: cell-based
T2 construct: endogenous in cells; host or cells: NCI-H2228, NCI-H3122; the other entry of the earlier key: EML4 (Q9HC35, Echinoderm microtubule-associated protein-like 4)
T2 sequence (Q9UM73 1058-1620 limits assumed): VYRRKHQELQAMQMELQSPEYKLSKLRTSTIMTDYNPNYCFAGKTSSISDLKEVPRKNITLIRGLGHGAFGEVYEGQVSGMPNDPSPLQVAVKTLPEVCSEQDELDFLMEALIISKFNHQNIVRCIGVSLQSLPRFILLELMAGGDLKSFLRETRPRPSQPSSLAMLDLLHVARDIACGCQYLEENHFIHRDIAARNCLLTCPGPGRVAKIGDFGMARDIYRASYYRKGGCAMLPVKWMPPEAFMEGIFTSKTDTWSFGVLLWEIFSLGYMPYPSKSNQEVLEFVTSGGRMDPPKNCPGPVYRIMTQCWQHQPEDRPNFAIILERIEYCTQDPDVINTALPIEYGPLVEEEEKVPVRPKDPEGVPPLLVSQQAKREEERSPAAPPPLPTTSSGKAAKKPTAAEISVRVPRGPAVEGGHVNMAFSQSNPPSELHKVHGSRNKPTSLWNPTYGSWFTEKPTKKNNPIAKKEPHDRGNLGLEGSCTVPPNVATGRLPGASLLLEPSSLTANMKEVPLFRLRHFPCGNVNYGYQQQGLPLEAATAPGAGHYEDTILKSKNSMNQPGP
Method: as §1, §2, §3

[5] = test system: MEK1 and MEK2; assay: Western blot analysis of MEK1 and MEK2 levels in HT29 and SK-MEL-28 cells; format: cell-based; conditions: HT29 and SK-MEL-28 cells, dose- and time-dependent
Method: as §1, §2, §3

T1 sequence (Q9UM73 with tags, fused parts or gaps): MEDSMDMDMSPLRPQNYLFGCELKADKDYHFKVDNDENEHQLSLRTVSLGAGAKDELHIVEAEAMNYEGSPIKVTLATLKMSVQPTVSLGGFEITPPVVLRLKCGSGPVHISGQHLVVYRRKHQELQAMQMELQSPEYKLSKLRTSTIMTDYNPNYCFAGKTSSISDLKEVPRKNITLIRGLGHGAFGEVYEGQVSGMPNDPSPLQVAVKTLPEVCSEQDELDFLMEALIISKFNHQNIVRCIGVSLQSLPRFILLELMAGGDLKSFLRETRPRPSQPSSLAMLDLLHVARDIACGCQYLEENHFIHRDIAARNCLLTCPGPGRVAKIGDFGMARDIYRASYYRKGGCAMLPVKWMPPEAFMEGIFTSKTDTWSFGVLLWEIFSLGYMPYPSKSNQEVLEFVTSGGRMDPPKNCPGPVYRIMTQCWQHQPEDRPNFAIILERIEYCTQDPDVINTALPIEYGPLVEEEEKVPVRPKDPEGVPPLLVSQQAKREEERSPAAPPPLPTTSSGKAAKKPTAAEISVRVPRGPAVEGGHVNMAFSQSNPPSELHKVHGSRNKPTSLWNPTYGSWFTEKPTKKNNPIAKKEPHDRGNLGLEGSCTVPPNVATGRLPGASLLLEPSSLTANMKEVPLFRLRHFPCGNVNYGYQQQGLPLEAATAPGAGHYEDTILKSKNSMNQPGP

Row | release of MS4048 after DTT treatment [2] | IC50 [3] [nM] | effect in degrading NPM-ALK fusion protein after pretreatment with folic acid ([1]; SU-DHL-1 cells) | Compound | degradation of NPM-ALK fusion protein ([1]; SU-DHL-1 cells) | degradation of EML4-ALK fusion proteins [4] | DC50 ([1]; SU-DHL-1 cells, 12 hours) [nM] | other results
1 | no release of MS4048 | 9500 | – | Cc1cc(Nc2ncc(Cl)c(Nc3ccccc3S(=O)(=O)C(C)C)n2)c(OC(C)C)cc1C1CCN(CC(=O)NCCNc2cccc3c2C(=O)N(C2CCC(=O)N(C(=O)OCCCCCCn4cc(CNC(=O)CC[C@H](NC(=O)c5ccc(NCc6cnc7nc(N)[nH]c(=O)c7n6)cc5)C(=O)O)nn4)C2=O)C3=O)CC1 (stereo partly drawn) [FA-C2-MS4048, N^2-(4-(((2-amino-4-oxo-3,4-dihydropteridin-6-yl)methyl)amino)benzoyl)-N^5-((1-(6-((3-(4-((2-(2-(4-(4-((5-chloro-4-((2-(isopropylsulfonyl)phenyl)amino)pyrimidin-2-yl)amino)-5-isopropoxy-2-methylphenyl)piperidin-1-yl)acetamido)ethyl)amino)-1,3-dioxoisoindolin-2-yl)-2,6-dioxopiperidine-1-carbonyl)oxy)hexyl)-1H-1,2,3-triazol-4-yl)methyl)-L-glutamine] | had some degradation effect | – | – | –
2 | efficient release of MS4048 | 465 | blocked the effect | Cc1cc(Nc2ncc(Cl)c(Nc3ccccc3S(=O)(=O)C(C)C)n2)c(OC(C)C)cc1C1CCN(CC(=O)NCCNc2cccc3c2C(=O)N(C2CCC(=O)N(C(=O)OCCSSCCn4cc(CNC(=O)CC[C@H](NC(=O)c5ccc(NCc6cnc7nc(N)[nH]c(=O)c7n6)cc5)C(=O)O)nn4)C2=O)C3=O)CC1 (stereo partly drawn) [FA-S2-MS4048, N^2-(4-(((2-amino-4-oxo-3,4-dihydropteridin-6-yl)methyl)amino)benzoyl)-N^5-((1-(2-((2-((3-(4-((2-(2-(4-(4-((5-chloro-4-((2-(isopropylsulfonyl)phenyl)amino)pyrimidin-2-yl)amino)-5-isopropoxy-2-methylphenyl)piperidin-1-yl)acetamido)ethyl)amino)-1,3-dioxoisoindolin-2-yl)-2,6-dioxopiperidine-1-carbonyl)oxy)ethyl)disulfanyl)ethyl)-1H-1,2,3-triazol-4-yl)methyl)-L-glutamine] | effectively degraded | effectively degraded | – | potency in degrading the ALK proteins compared with FA-C2-MS4048 ([1]; ALK fusion proteins): more potent than FA-C2-MS4048; potency in degrading the proteins of interest compared with MS4048 ([1]; ALK fusion proteins): less potent than its uncaged analog, MS4048; time at which significant degradation was observed ([1]; SU-DHL-1 cells, 3 μM): ≤ 1 h; effect on degrading NPM-ALK after depletion of endogenous CRBN E3 ligase ([1]; SU-DHL-1 cells, 3 μM, 12 hours): significantly reduced the effect; effect on degrading NPM-ALK after knockdown of FOLR1 via shRNAs ([1]; SU-DHL-1 cells, 3 μM, 12 hours): completely abolished the effect; degradation of NPM-ALK with MG132 or MLN4924 ([1]; SU-DHL-1 cells, 10 μM MG132 or 1 μM MLN4924): blocked the degradation of NPM-ALK; potency in degrading NPM-ALK after pretreatment with S-Ac-GSH ([1]; SU-DHL-1 cells, S-Ac-GSH 1 mM): significant increase in potency; degradation of EML4-ALK with MG132 or MLN4924 ([4]; MG132 or MLN4924): blocked the degradation; release rate compared to FA-S2-POMA ([2]; DTT): slower; potency in inhibiting proliferation after pretreatment with folic acid ([3]; 2.5 mM folic acid): significantly reduced potency; potency in inhibiting proliferation after pretreatment with S-Ac-GSH ([3]; S-Ac-GSH 1 mM): significantly increased potency
3 | – | 200 | antagonized the effect | Cc1cc(Nc2ncc(Cl)c(Nc3ccccc3S(=O)(=O)C(C)C)n2)c(OC(C)C)cc1C1CCN(C(=O)CCCC(=O)N[C@H](C(=O)N2C[C@H](OC(=O)CCCCn3cc(CNC(=O)CC[C@H](NC(=O)c4ccc(NCc5cnc6nc(N)[nH]c(=O)c6n5)cc4)C(=O)O)nn3)C[C@H]2C(=O)N[C@@H](C)c2ccc(-c3scnc3C)cc2)C(C)(C)C)CC1 [Folate-MS99, N^2-(4-(((2-amino-4-oxo-3,4-dihydropteridin-6-yl)methyl)amino)benzoyl)-N^5-((1-(5-(((3R,5S)-1-((S)-2-(5-(4-(4-((5-chloro-4-((2-(isopropylsulfonyl)phenyl)amino)pyrimidin-2-yl)amino)-5-isopropoxy-2-methylphenyl)piperidin-1-yl)-5-oxopentanamido)-3,3-dimethylbutanoyl)-5-(((S)-1-(4-(4-methylthiazol-5-yl)phenyl)ethyl)carbamoyl)pyrrolidin-3-yl)oxy)-5-oxopentyl)-1H-1,2,3-triazol-4-yl)methyl)-L-glutamine] | degraded NPM-ALK fusion protein efficiently | efficiently degraded the EML4-ALK fusion proteins | 100 | effect in degrading EML4-ALK fusion protein after pretreatment with free folic acid ([4]; free folic acid pretreatment): antagonized the effect
4 | – | – | – | Cc1cc(Nc2ncc(Cl)c(Nc3ccccc3S(=O)(=O)C(C)C)n2)c(OC(C)C)cc1C1CCN(C(=O)CCCC(=O)N[C@H](C(=O)N2C[C@H](NC(=O)CCCCn3cc(CNC(=O)CC[C@H](NC(=O)c4ccc(NCc5cnc6nc(N)[nH]c(=O)c6n5)cc4)C(=O)O)nn3)C[C@H]2C(=O)N[C@@H](C)c2ccc(-c3scnc3C)cc2)C(C)(C)C)CC1 [Folate-MS99N, N^2-(4-(((2-amino-4-oxo-3,4-dihydropteridin-6-yl)methyl)amino)benzoyl)-N^5-((1-(5-(((3R,5S)-1-((S)-2-(5-(4-(4-((5-chloro-4-((2-(isopropylsulfonyl)phenyl)amino)pyrimidin-2-yl)amino)-5-isopropoxy-2-methylphenyl)piperidin-1-yl)-5-oxopentanamido)-3,3-dimethylbutanoyl)-5-(((S)-1-(4-(4-methylthiazol-5-yl)phenyl)ethyl)carbamoyl)pyrrolidin-3-yl)amino)-5-oxopentyl)-1H-1,2,3-triazol-4-yl)methyl)-L-glutamine] | – | – | – | degrading NPM-ALK ([1]; SU-DHL-1 cells, even at 3 μM): incapable of degrading NPM-ALK
5 | – | – | – | Cc1ncsc1-c1ccc([C@H](C)NC(=O)[C@@H]2C[C@@H](NC(=O)CCCCn3cc(CNC(=O)CC[C@H](NC(=O)c4ccc(NCc5cnc6nc(N)[nH]c(=O)c6n5)cc4)C(=O)O)nn3)CN2C(=O)[C@@H](NC(=O)CCCCCCCCCCNCCCONC(=O)c2ccc(F)c(F)c2Nc2ccc(I)cc2F)C(C)(C)C)cc1 [Folate-MS432N, N^2-(4-(((2-amino-4-oxo-3,4-dihydropteridin-6-yl)methyl)amino)benzoyl)-N^5-((1-(5-(((3R,5S)-1-((S)-2-(11-((3-((3,4-difluoro-2-((2-fluoro-4-iodophenyl)amino)benzamido)oxy)propyl)amino)undecanamido)-3,3-dimethylbutanoyl)-5-(((S)-1-(4-(4-methylthiazol-5-yl)phenyl)ethyl)carbamoyl)pyrrolidin-3-yl)amino)-5-oxopentyl)-1H-1,2,3-triazol-4-yl)methyl)-L-glutamine] | – | – | – | degradation of MEK1 and MEK2 [5]: could not do so

Row | Compound | release of MS4048 after DTT treatment [2] | IC50 [3] [nM] | effect in degrading NPM-ALK fusion protein after pretreatment with folic acid ([1]; SU-DHL-1 cells) | degradation of NPM-ALK fusion protein ([1]; SU-DHL-1 cells) | degradation of EML4-ALK fusion proteins [4] | DC50 ([1]; SU-DHL-1 cells, 12 hours) [nM] | other results
6 | Cc1cc(Nc2ncc(Cl)c(Nc3ccccc3S(=O)(=O)C(C)C)n2)c(OC(C)C)cc1C1CCN(C(=O)CCCC(=O)N[C@H](C(=O)N2C[C@H](O)C[C@H]2C(=O)N[C@@H](C)c2ccc(-c3scnc3C)cc2)C(C)(C)C)CC1 [MS99, (2S,4R)-1-((S)-2-(5-(4-(4-((5-chloro-4-((2-(isopropylsulfonyl)phenyl)amino)pyrimidin-2-yl)amino)-5-isopropoxy-2-methylphenyl)piperidin-1-yl)-5-oxopentanamido)-3,3-dimethylbutanoyl)-4-hydroxy-N-((S)-1-(4-(4-methylthiazol-5-yl)phenyl)ethyl)pyrrolidine-2-carboxamide] | – | 91.4 | – | degraded NPM-ALK fusion protein efficiently | – | 30 | –

From patent US20230364243A1, “CANCER-SELECTIVE TARGET DEGRADATION BY TARGETING GROUP CAGED PROTACS” (Beth Israel Deaconess Medical Center, Inc., priority 2021, published 2023)
